Laboratory results reported in US20260365670A1, “EGFR INHIBITORS AND USES THEREOF” (DIZAL (JIANGSU) PHARMACEUTICAL CO., LTD., priority 2022, published 2026).
Like-named read-outs stand apart in the source and are kept apart here.

Key:
[1] = biological target: T1, EGFR[T790M/C797S/L858R] (Homo sapiens, UniProt P00533, C797S/L858R/T790M); test: Inhibition of EGFR[T790M/C797S/L858R] biochemical enzymatic activity (HTRF); settings: 1 mM ATP
T1 construct: purchased Carna Bio
Method in brief: (§1)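 Enzyme preincubated with compound, then ATP (1 mM) and TK substrate-biotin (1 μM) added; 1 h RT; stopped with EDTA-containing detection mix; HTRF read (ex 320, em 615/665 nm); IC50 by 4-parameter logistic fit.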

[2] = biological target: T2, EGFR (C797S L858R) (Homo sapiens, UniProt P00533, C797S/L858R); test: Inhibition of EGFR (C797S L858R) biochemical enzymatic activity (HTRF); settings: 1 mM ATP
T2 construct: purchased signalchem
Method in brief: as §1

[3] = biological target: T3, EGFR Exon19Del (Homo sapiens, UniProt P00533, DEL746-750); test: Inhibition of EGFR Exon19Del biochemical enzymatic activity (HTRF); settings: read-out: IC50 @Del19
T3 construct: purchased Carna Bio
Method in brief: as §1

[4] = system: Ba/F3 cells expressing EGFR mutations; test: Cell proliferation assay, Ba/F3 cells expressing EGFR mutations (CellTiter-Glo, 72 hours); format: cell-based
Method in brief: (§2)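 Growth over 72 h was quantified by CellTiter-Glo luminescence, normalised as (G3 − G0)/(DMSO G3 − G0), for PC-9 cells seeded at 500/well and EGFR-mutant Ba/F3 cells at 5000/well in RPMI1640. Compound concentration series added after overnight incubation; GI50 obtained from best-fit curves.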

[5] = system: PC-9; test: Cell proliferation assay, PC-9 cells (CellTiter-Glo, 72 hours); format: cell-based; settings: PC9 cells, read-out: GI50 PC9
Method in brief: as §2

[6] = system: A-431; test: Cell proliferation assay, A-431 cells (GI50, Table 6); format: cell-based
[7] = biological target: T4, EGFR[T790M/C797S/d746-750] (Homo sapiens, UniProt P00533, C797S/DEL746-750/T790M); test: Inhibition of EGFR[T790M/C797S/d746-750] biochemical enzymatic activity (HTRF)
T4 construct: purchased Carna Bio
Method in brief: as §1

[8] = biological target: T5, EGFR L858R/T790M (Homo sapiens, UniProt P00533, L858R/T790M); test: Inhibition of EGFR L858R/T790M biochemical enzymatic activity (HTRF); settings: 1 mM ATP
T5 construct: purchased Carna Bio
Method in brief: as §1

[9] = biological target: T6, EGFR wild type (Homo sapiens, UniProt P00533); test: Inhibition of EGFR wild type biochemical enzymatic activity (HTRF); settings: 1 mM ATP
T6 construct: purchased Carna Bio
Method in brief: as §1

[10] = biological target: T7, EGFR Exon19Del/T790M (Homo sapiens, UniProt P00533, DEL746-750/T790M); test: Inhibition of EGFR Exon19Del/T790M biochemical enzymatic activity (HTRF); settings: 1 mM ATP
T7 construct: purchased Carna Bio
Method in brief: as §1

[11] = biological target: T8, EGFR L858R (Homo sapiens, UniProt P00533, L858R); test: Inhibition of EGFR L858R biochemical enzymatic activity (HTRF); settings: 1 mM ATP
T8 construct: purchased Carna Bio
Method in brief: as §1

[12] = biological target: T9, EGFR (d746-750 C797S) (Homo sapiens, UniProt P00533, C797S/DEL746-750); test: Inhibition of EGFR (d746-750 C797S) biochemical enzymatic activity (HTRF); settings: 1 mM ATP
T9 construct: purchased signalchem
Method in brief: as §1

[13] = Homo sapiens, A-431, A-431 cells
[14] = EGFR[T790M/C797S/L858R], 1 h at room temperature, read-out: IC50 @T790M- C797S - L858R
[15] = EGFR (C797S L858R), 1 h at room temperature, read-out: IC50 @L858-C797S
[16] = EGFR Exon19Del, 1 mM ATP, 1 h at room temperature
[17] = BaF3 cells, EGFR DEL19 - C797S, read-out: GI50 DEL19 - C797S/BaF3
[18] = BaF3 cells, EGFR DEL19 - T790-C797S, read-out: GI50 DEL19 - T790-C797S/BaF3
[19] = BaF3 cells, EGFR L858R - C797S, read-out: GI50 L858R - C797S/BaF3
[20] = BaF3 cells, EGFR L858R - T790-C797S, read-out: GI50 L858R - T790-C797S/BaF3
[21] = BaF3 cells, EGFR L858R - T790M, read-out: GI50 L858R - T790M/BaF3
[22] = BaF3 cells, EGFR L858R, read-out: GI50 L858R/BaF3
[23] = EGFR DEL19 - T790M, read-out: GI50 DEL19 - T790M
[24] = EGFR[T790M/C797S/d746-750], 1 mM ATP, 1 h at room temperature, read-out: IC50 @T790M - C797S - Del19
[25] = EGFR L858R/T790M, 1 h at room temperature, read-out: IC50 @L858R-T790M
[26] = EGFR wild type, 1 h at room temperature, read-out: IC50 @WT
[27] = EGFR Exon19Del/T790M, 1 h at room temperature, read-out: IC50 @Del19-T790M
[28] = 1 h at room temperature, read-out: IC50 @L858R
[29] = EGFR (d746-750 C797S), 1 h at room temperature, read-out: IC50 @Del19-C797S

T1 sequence (P00533 25-1210 T790M/C797S/L858R): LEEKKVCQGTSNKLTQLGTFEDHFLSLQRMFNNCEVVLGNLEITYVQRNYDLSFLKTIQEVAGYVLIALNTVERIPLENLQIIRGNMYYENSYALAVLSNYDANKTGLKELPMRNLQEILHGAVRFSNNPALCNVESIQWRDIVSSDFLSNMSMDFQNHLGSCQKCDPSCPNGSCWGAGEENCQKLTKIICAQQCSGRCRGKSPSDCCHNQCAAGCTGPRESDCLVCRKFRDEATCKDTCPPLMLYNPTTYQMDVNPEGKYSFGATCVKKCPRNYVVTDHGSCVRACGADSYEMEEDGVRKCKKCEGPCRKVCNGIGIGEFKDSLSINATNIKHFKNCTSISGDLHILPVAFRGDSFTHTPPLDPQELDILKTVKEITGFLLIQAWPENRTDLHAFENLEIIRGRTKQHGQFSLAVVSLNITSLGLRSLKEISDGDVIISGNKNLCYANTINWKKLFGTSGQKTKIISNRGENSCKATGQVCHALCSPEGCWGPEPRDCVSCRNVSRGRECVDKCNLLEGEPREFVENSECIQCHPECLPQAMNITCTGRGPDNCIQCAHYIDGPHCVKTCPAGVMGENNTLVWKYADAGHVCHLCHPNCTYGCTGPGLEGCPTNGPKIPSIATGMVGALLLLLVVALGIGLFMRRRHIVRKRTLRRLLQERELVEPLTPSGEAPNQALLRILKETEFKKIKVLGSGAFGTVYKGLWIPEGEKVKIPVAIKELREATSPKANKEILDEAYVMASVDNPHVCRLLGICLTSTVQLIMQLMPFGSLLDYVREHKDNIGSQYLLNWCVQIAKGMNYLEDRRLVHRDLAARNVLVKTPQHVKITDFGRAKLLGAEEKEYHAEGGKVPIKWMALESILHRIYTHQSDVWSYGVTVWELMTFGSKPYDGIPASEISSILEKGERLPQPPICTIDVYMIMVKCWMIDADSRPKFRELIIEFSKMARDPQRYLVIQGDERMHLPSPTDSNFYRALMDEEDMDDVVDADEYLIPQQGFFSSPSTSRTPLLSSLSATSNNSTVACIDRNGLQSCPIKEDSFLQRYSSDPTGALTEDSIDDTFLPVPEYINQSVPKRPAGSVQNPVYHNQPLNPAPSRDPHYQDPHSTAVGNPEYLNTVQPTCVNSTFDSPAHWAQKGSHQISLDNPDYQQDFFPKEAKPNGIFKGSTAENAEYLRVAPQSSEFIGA
T9 sequence (P00533 with tags, fused parts or gaps DEL746-750/C797S limits assumed): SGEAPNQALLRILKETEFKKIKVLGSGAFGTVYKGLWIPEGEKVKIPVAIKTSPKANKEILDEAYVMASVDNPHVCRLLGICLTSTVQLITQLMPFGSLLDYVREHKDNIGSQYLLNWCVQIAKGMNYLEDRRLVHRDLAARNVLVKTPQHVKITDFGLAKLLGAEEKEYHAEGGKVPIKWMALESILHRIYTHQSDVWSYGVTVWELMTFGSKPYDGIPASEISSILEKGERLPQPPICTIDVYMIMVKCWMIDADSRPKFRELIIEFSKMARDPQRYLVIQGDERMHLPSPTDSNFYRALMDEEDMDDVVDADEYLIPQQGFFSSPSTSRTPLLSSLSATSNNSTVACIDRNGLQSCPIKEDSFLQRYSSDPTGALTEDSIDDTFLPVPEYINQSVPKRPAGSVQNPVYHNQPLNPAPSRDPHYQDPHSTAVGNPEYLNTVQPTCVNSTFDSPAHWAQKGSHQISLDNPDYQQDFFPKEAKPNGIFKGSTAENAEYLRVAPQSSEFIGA
T8 sequence (P00533 25-1210 L858R): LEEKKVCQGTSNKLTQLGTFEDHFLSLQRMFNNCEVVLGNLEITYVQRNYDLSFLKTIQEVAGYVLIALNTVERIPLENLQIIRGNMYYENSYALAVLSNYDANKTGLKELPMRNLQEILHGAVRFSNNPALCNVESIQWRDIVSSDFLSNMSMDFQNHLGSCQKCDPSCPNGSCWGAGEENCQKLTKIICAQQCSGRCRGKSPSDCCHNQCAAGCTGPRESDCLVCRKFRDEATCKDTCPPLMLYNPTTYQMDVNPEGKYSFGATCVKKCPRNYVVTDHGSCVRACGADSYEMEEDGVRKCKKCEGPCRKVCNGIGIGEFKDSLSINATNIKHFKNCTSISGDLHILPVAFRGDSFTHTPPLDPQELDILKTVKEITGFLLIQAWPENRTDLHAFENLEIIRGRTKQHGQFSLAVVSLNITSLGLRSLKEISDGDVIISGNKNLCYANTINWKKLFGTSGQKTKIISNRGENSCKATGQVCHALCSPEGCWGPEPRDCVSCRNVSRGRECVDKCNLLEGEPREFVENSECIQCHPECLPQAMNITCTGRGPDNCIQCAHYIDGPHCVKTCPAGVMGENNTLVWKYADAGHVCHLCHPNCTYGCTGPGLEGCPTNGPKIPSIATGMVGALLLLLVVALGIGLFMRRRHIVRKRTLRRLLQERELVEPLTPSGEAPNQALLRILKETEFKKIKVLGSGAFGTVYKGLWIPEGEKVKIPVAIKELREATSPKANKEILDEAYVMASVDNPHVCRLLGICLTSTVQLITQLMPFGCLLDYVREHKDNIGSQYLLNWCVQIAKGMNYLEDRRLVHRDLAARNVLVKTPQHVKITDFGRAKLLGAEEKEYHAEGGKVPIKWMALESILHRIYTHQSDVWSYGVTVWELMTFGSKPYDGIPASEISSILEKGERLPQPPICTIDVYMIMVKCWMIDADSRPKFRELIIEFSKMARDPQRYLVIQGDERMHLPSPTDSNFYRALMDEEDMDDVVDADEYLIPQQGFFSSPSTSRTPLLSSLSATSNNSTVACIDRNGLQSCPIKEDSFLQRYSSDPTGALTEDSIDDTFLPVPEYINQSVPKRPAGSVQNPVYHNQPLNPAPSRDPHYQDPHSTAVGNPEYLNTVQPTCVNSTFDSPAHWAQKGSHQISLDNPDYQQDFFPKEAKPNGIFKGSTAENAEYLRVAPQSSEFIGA
T5 sequence (P00533 25-1210 T790M/L858R): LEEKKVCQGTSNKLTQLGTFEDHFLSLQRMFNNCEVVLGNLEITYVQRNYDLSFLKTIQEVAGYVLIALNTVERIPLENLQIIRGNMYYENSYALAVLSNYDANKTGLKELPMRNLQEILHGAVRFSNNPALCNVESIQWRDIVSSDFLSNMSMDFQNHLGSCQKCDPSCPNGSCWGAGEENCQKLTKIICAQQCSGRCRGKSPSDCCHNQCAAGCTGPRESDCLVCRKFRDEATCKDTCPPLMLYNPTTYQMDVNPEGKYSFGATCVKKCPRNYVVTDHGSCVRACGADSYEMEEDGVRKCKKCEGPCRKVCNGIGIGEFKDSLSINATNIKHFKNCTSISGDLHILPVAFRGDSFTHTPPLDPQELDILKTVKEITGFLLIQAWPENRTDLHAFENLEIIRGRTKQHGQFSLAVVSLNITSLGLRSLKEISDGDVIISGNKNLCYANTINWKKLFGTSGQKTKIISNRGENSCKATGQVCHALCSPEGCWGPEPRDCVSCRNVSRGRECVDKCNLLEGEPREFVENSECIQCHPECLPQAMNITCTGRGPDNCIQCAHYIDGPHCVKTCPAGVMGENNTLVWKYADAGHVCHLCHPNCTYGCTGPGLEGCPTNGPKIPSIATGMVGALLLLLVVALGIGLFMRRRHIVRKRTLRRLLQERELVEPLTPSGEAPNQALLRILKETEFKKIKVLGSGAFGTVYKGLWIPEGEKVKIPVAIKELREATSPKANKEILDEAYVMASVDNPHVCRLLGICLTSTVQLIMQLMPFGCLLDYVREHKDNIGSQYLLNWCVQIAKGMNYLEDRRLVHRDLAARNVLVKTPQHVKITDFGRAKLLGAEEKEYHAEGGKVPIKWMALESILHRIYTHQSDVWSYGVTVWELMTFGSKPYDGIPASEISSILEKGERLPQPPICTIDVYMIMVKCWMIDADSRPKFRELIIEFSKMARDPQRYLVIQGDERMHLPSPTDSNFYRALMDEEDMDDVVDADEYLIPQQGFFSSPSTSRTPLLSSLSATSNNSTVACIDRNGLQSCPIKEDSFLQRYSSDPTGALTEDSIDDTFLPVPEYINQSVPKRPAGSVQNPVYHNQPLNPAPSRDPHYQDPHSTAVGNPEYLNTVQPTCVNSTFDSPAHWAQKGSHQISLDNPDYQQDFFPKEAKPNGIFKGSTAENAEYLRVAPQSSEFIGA
T7 sequence (P00533 with tags, fused parts or gaps DEL746-750/T790M limits assumed): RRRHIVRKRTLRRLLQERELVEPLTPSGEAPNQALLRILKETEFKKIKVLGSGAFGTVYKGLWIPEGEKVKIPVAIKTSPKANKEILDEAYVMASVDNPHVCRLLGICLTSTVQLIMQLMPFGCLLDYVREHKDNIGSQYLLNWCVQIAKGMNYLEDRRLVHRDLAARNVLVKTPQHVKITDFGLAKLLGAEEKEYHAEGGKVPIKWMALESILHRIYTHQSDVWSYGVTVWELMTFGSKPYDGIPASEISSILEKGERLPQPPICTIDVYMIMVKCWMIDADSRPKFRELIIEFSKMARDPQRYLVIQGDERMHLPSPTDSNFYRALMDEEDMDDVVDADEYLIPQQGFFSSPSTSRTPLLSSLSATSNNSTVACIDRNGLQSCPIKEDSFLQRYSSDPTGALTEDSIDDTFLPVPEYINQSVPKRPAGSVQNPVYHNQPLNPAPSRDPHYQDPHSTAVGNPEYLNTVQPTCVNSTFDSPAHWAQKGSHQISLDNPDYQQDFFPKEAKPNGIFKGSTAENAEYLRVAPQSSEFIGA

`CN1CCC2CN(c3ccc4nc5n(c4c3)C34CCC(CC3)CN(CCOc3c(cnn3C)-c3cc(cn(C)c3=O)C(=O)N5)C4)CC21` (stereo not drawn) [Example A127] showed an IC50 ([1]; EGFR T790M-C797S-L858R, 1 h, room temperature, read-out: IC50 (nM) @T790M- C797S - L858R) of 39 nM, an IC50 ([2]; EGFR L858-C797S, 1 h, room temperature, read-out: IC50 (nM) @L858-C797S) of 69 nM and an IC50 ([3]; EGFR Del19, 1 mM ATP, 1 h, room temperature) of 15 nM. It also gave a GI50 ([4]; Mus musculus, BaF3, 72 h, BaF3 cells, EGFR DEL19 - C797S, read-out: GI50 DEL19 - C797S/BaF3) of 8.5 nM, a GI50 ([4]; Mus musculus, BaF3, 72 h, BaF3 cells, EGFR DEL19 - T790-C797S, read-out: GI50 DEL19 - T790-C797S/BaF3) of 36 nM and a GI50 ([4]; Mus musculus, BaF3, 72 h, BaF3 cells, EGFR L858R - C797S, read-out: GI50 L858R - C797S/BaF3) of 38 nM. For the same compound, the GI50 ([4]; Mus musculus, BaF3, 72 h, BaF3 cells, EGFR L858R - T790-C797S, read-out: GI50 L858R - T790-C797S/BaF3) was 21 nM, the GI50 ([4]; Mus musculus, BaF3, 72 h, BaF3 cells, EGFR L858R - T790M, read-out: GI50 L858R - T790M/BaF3) was 52 nM and the GI50 ([4]; Mus musculus, BaF3, 72 h, BaF3 cells, EGFR L858R, read-out: GI50 L858R/BaF3) was 7.2 nM. For the same compound, the GI50 ([4]; Mus musculus, BaF3, 72 h, EGFR DEL19 - T790M, read-out: GI50 DEL19 - T790M) was 26 nM, the GI50 ([5]; Homo sapiens, PC-9, 72 h) was 34 nM and the GI50 [6, 13] was 4680 nM. For the same compound, the IC50 ([7]; EGFR T790M-C797S-Del19, 1 mM ATP, 1 h, room temperature, read-out: IC50 (nM) @T790M - C797S - Del19) was 6.1 nM, the IC50 ([8]; EGFR L858R-T790M, 1 h, room temperature, read-out: IC50 (nM) @L858R-T790M) was 211 nM and the IC50 ([9]; EGFR WT, 1 h, room temperature, read-out: IC50 (nM) @WT) was 4880 nM. The IC50 ([10]; EGFR Del19-T790M, 1 h, room temperature, read-out: IC50 (nM) @Del19-T790M) was 10 nM, the IC50 ([11]; 1 h, room temperature, read-out: IC50 (nM) @L858R) was 118 nM and the IC50 ([12]; EGFR Del19-C797S, 1 h, room temperature, read-out: IC50 (nM) @Del19-C797S) was 9.2 nM.

Work on `Cc1cc2cc(n1)-c1cnn(C)c1OCCN1CC3CCC(C3)(C1)n1c(nc3ccc(N4CCC5(CC4)CCN5C)cc31)NC2=O` (single isomer, unassigned) [Example B54B] yielded an IC50 [1, 14] of 1.6 nM, an IC50 [2, 15] of 3.9 nM and an IC50 [3, 16] of 4.9 nM. The GI50 [4, 17] was 2 nM, the GI50 [4, 18] was 2 nM and the GI50 [4, 19] was 2 nM. It also gave a GI50 [4, 20] of 2 nM, a GI50 [4, 21] of 2 nM and a GI50 [4, 22] of 2 nM. For the same compound, the GI50 [4, 23] was 6 nM, the GI50 [5] was 3 nM and the GI50 ([6]; A-431 cells) was 795 nM. The IC50 [7, 24] was 2.5 nM, the IC50 [8, 25] was 3.1 nM and the IC50 [9, 26] was 121 nM. It also gave an IC50 [10, 27] of 3.9 nM, an IC50 [11, 28] of 13 nM and an IC50 [12, 29] of 2 nM.

Compound `Cc1cc2cc(n1)-c1cnn(C)c1OCCN1CC3CCC(C3)(C1)n1c(nc3ccc(N4CCC(N5CCOCC5)C4)cc31)NC2=O` (single isomer, unassigned) [Example B44B1] has an IC50 [1, 14] of 6.4 nM, an IC50 [2, 15] of 66 nM and an IC50 [3, 16] of 34 nM. The GI50 [4, 17] was 2 nM, the GI50 [4, 18] was 2 nM and the GI50 [4, 19] was 6 nM. It also gave a GI50 [4, 20] of 2 nM, a GI50 [4, 21] of 2 nM and a GI50 [4, 22] of 24 nM. It also gave a GI50 [4, 23] of 7 nM, a GI50 [5] of 22 nM and a GI50 [6, 13] of 3690 nM. For the same compound, the IC50 [7, 24] was 8.8 nM, the IC50 [8, 25] was 19 nM and the IC50 [9, 26] was over 5000 nM. The IC50 [10, 27] was 12 nM, the IC50 [11, 28] was 337 nM and the IC50 [12, 29] was 12 nM.

`Cc1cc2cc(n1)-c1cnn(C)c1OCCN1CC3CCC(C3)(C1)n1c(nc3ccc(N4CCN(C5CC5)CC4)cc31)NC2=O` (single isomer, unassigned) [Example B55A] gave an IC50 [1, 14] of over 5000 nM, an IC50 [2, 15] of over 5000 nM and an IC50 [3, 16] of over 5000 nM. The GI50 [4, 17] was 549 nM, the GI50 [4, 18] was 638 nM and the GI50 [4, 19] was 2560 nM. It also gave a GI50 [4, 20] of 350 nM, a GI50 [4, 21] of 939 nM and a GI50 [4, 22] of 4180 nM. The GI50 [4, 23] was 1100 nM, the GI50 [5] was 1930 nM and the GI50 ([6]; A-431 cells) was 7540 nM. It also gave an IC50 [7, 24] of 2740 nM, an IC50 [8, 25] of over 5000 nM and an IC50 [9, 26] of over 5000 nM. It also gave an IC50 [10, 27] of over 5000 nM, an IC50 [11, 28] of over 5000 nM and an IC50 [12, 29] of over 5000 nM.
